Data from patent US10231954B2, “Neurodegenerative therapies” (LYTIX BIOPHARMA AS, priority 2014, dated 2019).
Where two headings read alike, the source gives them in different places.

Tests used:
Format in all cases: biochemical
[1] = biological target: MARK2 (Homo sapiens, UniProt Q7KZI7); assay: Kinase profiling MARK2; conditions: for remaining activity at 100 µM: read-out: residual kinase activity, MARK2
Source text: (§1) Any value less that 25 is considered to be highly significant inhibition.

[2] = biological target: T1, BRSK1 (Homo sapiens, UniProt Q8TDC3); assay: Kinase profiling BRSK1; conditions: for remaining activity at 100 µM: read-out: residual kinase activity, BRSK1
T1 sequence (Q8TDC3 1-778): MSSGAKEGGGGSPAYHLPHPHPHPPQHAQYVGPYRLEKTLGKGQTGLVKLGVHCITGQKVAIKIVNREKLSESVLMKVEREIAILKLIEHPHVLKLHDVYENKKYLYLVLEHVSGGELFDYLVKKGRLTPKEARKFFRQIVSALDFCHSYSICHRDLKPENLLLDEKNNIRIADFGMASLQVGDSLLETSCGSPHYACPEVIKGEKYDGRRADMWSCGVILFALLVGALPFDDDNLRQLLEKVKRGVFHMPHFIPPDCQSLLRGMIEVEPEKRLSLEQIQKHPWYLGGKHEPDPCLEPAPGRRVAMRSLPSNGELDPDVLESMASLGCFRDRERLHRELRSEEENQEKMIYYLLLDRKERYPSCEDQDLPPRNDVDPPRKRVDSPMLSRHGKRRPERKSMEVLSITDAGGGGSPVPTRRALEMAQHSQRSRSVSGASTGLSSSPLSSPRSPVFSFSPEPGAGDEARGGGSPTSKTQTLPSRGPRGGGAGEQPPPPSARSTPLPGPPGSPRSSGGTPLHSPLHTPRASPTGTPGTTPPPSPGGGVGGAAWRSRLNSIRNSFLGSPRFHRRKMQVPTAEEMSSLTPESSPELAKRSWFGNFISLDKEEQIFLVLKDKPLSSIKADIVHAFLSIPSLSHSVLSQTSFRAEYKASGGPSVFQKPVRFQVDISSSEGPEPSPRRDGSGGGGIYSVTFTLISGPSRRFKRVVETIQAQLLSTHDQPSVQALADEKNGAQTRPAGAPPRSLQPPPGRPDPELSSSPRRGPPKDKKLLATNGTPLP
Source text: as §1

[3] = biological target: TTBK2 (Homo sapiens, UniProt Q6IQ55); assay: Kinase profiling TTBK2; conditions: for remaining activity at 100 µM: read-out: residual kinase activity, TTBK2
Chain of TTBK2 (Q6IQ55 whole entry, species assumed): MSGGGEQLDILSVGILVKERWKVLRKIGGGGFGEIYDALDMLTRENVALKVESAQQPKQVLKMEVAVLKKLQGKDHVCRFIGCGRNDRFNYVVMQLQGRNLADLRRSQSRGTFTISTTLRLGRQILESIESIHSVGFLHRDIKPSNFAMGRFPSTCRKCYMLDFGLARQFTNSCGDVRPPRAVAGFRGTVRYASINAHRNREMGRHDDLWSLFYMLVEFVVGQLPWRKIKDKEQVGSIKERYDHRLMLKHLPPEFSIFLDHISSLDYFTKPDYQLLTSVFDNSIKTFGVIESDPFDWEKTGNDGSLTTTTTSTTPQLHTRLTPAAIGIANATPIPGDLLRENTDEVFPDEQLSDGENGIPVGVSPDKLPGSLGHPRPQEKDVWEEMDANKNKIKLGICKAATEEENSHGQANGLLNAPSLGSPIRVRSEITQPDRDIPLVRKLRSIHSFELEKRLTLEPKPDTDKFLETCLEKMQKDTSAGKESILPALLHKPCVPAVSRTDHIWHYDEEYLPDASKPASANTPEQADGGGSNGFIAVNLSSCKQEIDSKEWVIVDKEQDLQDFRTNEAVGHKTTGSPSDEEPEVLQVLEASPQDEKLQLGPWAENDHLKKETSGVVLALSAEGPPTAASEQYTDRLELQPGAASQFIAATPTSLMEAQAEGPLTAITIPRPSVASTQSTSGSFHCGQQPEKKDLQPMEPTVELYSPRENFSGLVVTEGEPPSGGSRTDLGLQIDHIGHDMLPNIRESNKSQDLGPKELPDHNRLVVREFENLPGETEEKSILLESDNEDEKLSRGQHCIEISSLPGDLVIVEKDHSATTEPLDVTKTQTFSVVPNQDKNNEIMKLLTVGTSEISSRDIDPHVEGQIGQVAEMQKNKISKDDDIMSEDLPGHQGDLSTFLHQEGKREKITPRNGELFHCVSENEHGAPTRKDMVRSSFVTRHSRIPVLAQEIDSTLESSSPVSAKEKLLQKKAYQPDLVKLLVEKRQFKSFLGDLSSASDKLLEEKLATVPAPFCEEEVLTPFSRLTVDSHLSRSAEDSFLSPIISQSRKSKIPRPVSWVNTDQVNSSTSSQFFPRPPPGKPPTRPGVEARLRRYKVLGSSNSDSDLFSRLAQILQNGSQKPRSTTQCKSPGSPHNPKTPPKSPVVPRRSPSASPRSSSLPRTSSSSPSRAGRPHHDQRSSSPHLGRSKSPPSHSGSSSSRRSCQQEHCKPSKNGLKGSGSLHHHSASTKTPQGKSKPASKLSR
Source text: as §1

[4] = biological target: MST3 (Homo sapiens, UniProt Q9Y6E0); assay: Kinase profiling MST3; conditions: for remaining activity at 100 µM: read-out: residual kinase activity, MST3
Chain of MST3 (Q9Y6E0 whole entry, species assumed): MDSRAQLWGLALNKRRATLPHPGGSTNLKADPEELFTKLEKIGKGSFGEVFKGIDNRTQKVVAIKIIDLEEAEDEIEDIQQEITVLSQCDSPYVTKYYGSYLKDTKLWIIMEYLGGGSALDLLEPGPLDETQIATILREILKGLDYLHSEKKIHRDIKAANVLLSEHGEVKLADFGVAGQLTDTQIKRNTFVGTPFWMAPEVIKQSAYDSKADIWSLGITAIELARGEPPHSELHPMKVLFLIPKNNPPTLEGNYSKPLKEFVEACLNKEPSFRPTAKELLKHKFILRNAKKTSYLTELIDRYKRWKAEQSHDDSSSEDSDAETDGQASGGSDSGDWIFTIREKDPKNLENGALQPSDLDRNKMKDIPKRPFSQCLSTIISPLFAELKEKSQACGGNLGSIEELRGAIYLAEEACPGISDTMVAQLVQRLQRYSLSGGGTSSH
Source text: as §1

[5] = biological target: MST4 (Homo sapiens, UniProt Q9P289); assay: Kinase profiling MST4; conditions: for remaining activity at 100 µM: read-out: residual kinase activity, MST4
Chain of MST4 (Q9P289 whole entry, species assumed): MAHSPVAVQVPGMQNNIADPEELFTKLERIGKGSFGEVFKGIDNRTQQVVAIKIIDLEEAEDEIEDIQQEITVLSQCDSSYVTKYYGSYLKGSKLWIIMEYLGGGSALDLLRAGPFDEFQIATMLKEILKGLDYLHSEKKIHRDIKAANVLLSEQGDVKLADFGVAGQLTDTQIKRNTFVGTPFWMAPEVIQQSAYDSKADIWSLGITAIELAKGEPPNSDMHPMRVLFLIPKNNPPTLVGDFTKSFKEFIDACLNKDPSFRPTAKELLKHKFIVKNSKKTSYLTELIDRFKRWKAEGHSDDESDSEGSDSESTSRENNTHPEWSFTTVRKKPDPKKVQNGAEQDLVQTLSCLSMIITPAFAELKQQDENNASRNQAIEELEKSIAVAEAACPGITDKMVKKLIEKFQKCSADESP
Source text: as §1

[6] = biological target: T2, EPH-B4 (Homo sapiens, UniProt P54760); assay: Kinase profiling EPH-B4; conditions: for remaining activity at 100 µM: read-out: residual kinase activity, EPH-B4
T2 sequence (P54760 16-987): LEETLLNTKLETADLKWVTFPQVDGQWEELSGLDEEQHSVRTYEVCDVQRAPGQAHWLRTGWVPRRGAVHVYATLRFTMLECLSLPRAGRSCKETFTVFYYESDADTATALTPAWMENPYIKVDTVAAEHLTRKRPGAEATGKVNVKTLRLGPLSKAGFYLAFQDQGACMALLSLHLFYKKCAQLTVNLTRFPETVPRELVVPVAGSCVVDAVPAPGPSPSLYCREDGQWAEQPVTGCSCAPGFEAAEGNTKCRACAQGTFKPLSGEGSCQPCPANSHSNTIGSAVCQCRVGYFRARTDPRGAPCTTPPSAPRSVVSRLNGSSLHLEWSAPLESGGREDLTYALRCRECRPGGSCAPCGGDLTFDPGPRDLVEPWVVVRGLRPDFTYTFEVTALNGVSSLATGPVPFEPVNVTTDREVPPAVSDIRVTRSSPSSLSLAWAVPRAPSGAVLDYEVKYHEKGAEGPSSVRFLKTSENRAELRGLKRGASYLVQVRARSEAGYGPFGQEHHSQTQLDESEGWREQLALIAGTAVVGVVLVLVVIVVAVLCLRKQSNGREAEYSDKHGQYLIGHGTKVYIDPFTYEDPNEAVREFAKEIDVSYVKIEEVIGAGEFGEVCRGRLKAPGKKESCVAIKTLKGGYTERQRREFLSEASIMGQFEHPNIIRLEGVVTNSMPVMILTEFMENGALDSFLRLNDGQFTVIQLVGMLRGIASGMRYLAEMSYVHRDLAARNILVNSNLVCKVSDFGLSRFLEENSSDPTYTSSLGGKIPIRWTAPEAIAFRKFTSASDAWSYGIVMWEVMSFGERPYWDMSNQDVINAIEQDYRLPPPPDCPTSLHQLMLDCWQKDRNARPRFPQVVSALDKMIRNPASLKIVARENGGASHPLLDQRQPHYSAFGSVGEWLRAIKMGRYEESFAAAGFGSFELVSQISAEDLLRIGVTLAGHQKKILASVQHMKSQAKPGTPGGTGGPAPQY
Source text: as §1

[7] = biological target: T3, DDR2 (Homo sapiens, UniProt Q16832); assay: Kinase profiling DDR2; conditions: for remaining activity at 100 µM: read-out: residual kinase activity, DDR2
T3 sequence (Q16832 22-855): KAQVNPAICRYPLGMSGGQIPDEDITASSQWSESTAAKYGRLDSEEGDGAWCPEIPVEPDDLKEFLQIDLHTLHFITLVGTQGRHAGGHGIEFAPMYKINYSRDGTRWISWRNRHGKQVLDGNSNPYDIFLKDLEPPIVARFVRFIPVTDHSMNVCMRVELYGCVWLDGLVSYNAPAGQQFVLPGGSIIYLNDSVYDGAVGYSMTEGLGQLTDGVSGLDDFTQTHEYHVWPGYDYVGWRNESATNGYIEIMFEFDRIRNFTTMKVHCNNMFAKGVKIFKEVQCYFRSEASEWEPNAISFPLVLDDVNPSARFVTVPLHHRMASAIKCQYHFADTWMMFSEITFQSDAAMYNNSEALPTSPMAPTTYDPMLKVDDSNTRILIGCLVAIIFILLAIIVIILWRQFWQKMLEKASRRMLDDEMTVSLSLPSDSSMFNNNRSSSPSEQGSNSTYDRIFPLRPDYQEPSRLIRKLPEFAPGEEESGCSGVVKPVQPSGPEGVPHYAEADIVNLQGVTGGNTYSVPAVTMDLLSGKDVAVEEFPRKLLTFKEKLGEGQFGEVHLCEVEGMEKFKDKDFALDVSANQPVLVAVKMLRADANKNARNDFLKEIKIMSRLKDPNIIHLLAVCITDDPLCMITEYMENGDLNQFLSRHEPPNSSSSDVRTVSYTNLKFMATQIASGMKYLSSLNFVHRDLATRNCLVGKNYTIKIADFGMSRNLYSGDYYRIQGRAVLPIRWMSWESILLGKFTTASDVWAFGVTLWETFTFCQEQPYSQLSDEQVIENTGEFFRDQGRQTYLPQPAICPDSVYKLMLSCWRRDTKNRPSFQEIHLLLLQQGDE
Source text: as §1

[8] = 100 micromolar inhibitor concentration, 100 is no change
[9] = 100 micromolar inhibitor, 100 = no change

Chain of MARK2 (Q7KZI7 whole entry, species assumed): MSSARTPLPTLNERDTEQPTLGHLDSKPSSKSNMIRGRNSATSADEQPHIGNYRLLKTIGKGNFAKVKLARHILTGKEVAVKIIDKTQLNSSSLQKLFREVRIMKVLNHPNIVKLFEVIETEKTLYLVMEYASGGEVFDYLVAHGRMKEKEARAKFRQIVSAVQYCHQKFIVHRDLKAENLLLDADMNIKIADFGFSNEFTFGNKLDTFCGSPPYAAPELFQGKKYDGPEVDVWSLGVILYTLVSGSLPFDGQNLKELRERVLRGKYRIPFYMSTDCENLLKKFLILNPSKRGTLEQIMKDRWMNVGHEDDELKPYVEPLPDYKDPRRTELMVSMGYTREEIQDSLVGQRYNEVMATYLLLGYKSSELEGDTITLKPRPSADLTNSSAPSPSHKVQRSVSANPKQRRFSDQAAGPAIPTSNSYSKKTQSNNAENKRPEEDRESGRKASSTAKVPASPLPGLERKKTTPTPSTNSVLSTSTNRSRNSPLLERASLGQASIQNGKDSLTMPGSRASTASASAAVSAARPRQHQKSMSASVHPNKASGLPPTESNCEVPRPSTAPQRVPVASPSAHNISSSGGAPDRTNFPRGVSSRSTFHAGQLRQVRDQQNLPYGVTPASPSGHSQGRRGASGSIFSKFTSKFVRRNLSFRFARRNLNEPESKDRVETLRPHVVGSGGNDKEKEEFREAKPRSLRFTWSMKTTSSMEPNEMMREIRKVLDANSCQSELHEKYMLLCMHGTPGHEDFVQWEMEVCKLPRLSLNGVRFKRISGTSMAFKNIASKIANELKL

| Structure (SMILES) | residual kinase activity, MARK2 [1, 8] | residual kinase activity, BRSK1 [2, 8] | residual kinase activity, TTBK2 [3, 8] | residual kinase activity, MST3 [4, 8] | residual kinase activity, MST4 [5, 8] | residual kinase activity, EPH-B4 [6, 8] | residual kinase activity, DDR2 [7, 8] | remaining activity at 100 µM [1, 8] | remaining activity at 100 µM [2, 8] | remaining activity at 100 µM [4, 8] | remaining activity at 100 µM [5, 8] | remaining activity at 100 µM [6, 8] | remaining activity at 100 µM [7, 8] | also measured |
| --- | --- | --- | --- | --- | --- | --- | --- | --- | --- | --- | --- | --- | --- | --- |
| O=C(Nc1nc2cc(O)ccc2s1)c1ccncc1 [Compound 03-11] | 79 | 70 | 99 | 92 | 134 | 97 | 115 |  |  |  |  |  |  |  |
| CC(=O)Nc1nc2cc(C)ccc2s1 [Compound 03-76] | 97 | 75 | 97 | 85 | 103 | 109 | 110 |  |  |  |  |  |  |  |
| CC(=O)Nc1nc2cc(O)ccc2s1 [Compound 01-66, N-(5-hydroxybenzo[d]thiazol-2-yl)acetamide] |  |  |  |  |  |  |  |  |  |  |  |  |  | remaining activity at 100 µM [1]: 63%; remaining activity at 100 µM [2]: 48%; remaining activity at 100 µM [4]: 79%; remaining activity at 100 µM [5]: 84%; remaining activity at 100 µM [6]: 83%; remaining activity at 100 µM [7]: 65% |
| CC(=O)Nc1nc2ccc(C(F)(F)F)cc2s1 [Compound 01-90] |  |  |  |  |  |  |  | 74% | 83% | 85% | 89% | 55% | 62% | remaining activity at 100 µM [3, 8]: 98% |
| CC(=O)Nc1nc2ccc(O)cc2s1 [Compound 01-71] |  |  |  |  |  |  |  | 54% | 16% | 66% | 70% | 98% | 56% |  |
| O=C(Nc1nc2ccc(O)cc2s1)c1ccccc1 [Compound 03-60] | 65 | 43 | 44 | 54 | 71 | 110 | 112 |  |  |  |  |  |  |  |
| CC(=O)Nc1nc2ccc(C#N)cc2s1 [Compound 01-94] |  |  |  |  |  |  |  | 53% | 62% | 71% | 75% | 62% | 93% | remaining activity at 100 µM [3, 8]: 78% |
| COc1ccc2sc(NC(C)=O)nc2c1 [Compound 03-21] |  |  |  |  |  |  |  | 103% | 85% | 91% | 88% | 98% | 102% | remaining activity at 100 µM [3, 8]: 84% |
| O=C(Nc1nc2ccc(O)cc2s1)c1ccncc1 [Compound 08-42] | 67 | 56 | 74 | 77 | 79 | 92 | 89 |  |  |  |  |  |  |  |
| CC(=O)Nc1cccc(NC(=O)c2nc3ccc(O)cc3s2)c1 [Compound 03-07, N-(3-acetamidophenyl)-6-hydroxybenzo[d]thiazole-2-carboxamide] |  |  |  |  |  |  |  |  |  |  |  |  |  | remaining activity at 100 µM [1, 9]: 73%; remaining activity at 100 µM [2, 9]: 52%; remaining activity at 100 µM [3, 9]: 71%; remaining activity at 100 µM [4, 9]: 85%; remaining activity at 100 µM [5, 9]: 76%; remaining activity at 100 µM [6, 9]: 100%; remaining activity at 100 µM [7, 9]: 90% |
| O=C(Nc1nc2cc(O)ccc2s1)c1ccccn1 [Compound 03-13] | 84 | 95 | 71 | 78 | 76 | 88 | 85 |  |  |  |  |  |  |  |
| O=C(Nc1nc2ccc(O)cc2s1)c1ccccn1 [Compound 03-12] | 90 | 63 | 102 | 85 | 80 | 84 | 104 |  |  |  |  |  |  |  |
| O=C(Nc1nc2ccc(O)cc2s1)c1cccnc1 [Compound 08-44] | 74 | 45 | 51 | 76 | 80 | 100 | 93 |  |  |  |  |  |  |  |
| CC(=O)Nc1nc2cc(C(F)(F)F)ccc2s1 [Compound 03-73] |  |  |  |  |  |  |  | 99% | 83% | 89% | 91% | 101% | 111% | remaining activity at 100 µM [3, 8]: 91% |
